Active and inactive are the calls of the source. No rule for the calls is given here.
These molecules were tested against Pyruvate kinase (Leishmania mexicana) (UniProt Q27686) (assay: Activation of Leishmania mexicana pyruvate kinase by quantitative high throughput screening assay).

SMILES	Activity
COc1ccc(S(=O)(=O)N2CCN(S(=O)(=O)c3c(F)cccc3F)CC2)cc1	inactive
O=S(=O)(c1ccc2c(c1)OCCO2)N1CCCN(S(=O)(=O)c2c(F)cccc2F)CC1	inactive
O=S(=O)(NCCNS(=O)(=O)c1c(F)cccc1F)c1ccc2c(c1)OCCO2	inactive
O=S(=O)(c1ccc2c(c1)OCCO2)N1CCN(S(=O)(=O)c2ccc(F)cc2F)CC1	inactive
COc1cc(F)c(S(=O)(=O)N2CCCN(S(=O)(=O)c3cccc(N)c3)CC2)c(F)c1	inactive
Nc1cccc(S(=O)(=O)N2CCCN(S(=O)(=O)c3ccc4c(c3)OCCO4)CC2)c1	inactive
O=S(=O)(c1ccc2c(c1)OCCO2)N1CCN(S(=O)(=O)c2c(F)ccc(O)c2F)CC1	inactive
O=C1CN(S(=O)(=O)c2c(F)cccc2F)CCN1S(=O)(=O)c1ccc2c(c1)OCCO2	inactive
C[C@H]1CN(S(=O)(=O)c2ccc3c(c2)OCCO3)CCN1S(=O)(=O)c1c(F)cccc1F	inactive
O=S(=O)(c1ccc2c(c1)OCCO2)N1CCN(S(=O)(=O)c2ccccc2F)CC1	inactive
O=S(=O)(c1ccc2c(c1)OCCO2)N1CCN(S(=O)(=O)c2cc(F)c(F)cc2F)CC1	inactive
O=S(=O)(c1ccc2c(c1)OCCCO2)N1CCN(S(=O)(=O)c2c(F)cccc2F)CC1	inactive
C[C@H]1CN(S(=O)(=O)c2c(F)cccc2F)CCN1S(=O)(=O)c1ccc2c(c1)OCCO2	inactive
O=S(=O)(NCCCCCCNS(=O)(=O)c1c(F)cccc1F)c1ccc2c(c1)OCCO2	inactive
O=S(=O)(c1ccc2c(c1)OCO2)N1CCN(S(=O)(=O)c2c(F)cccc2F)CC1	inactive
COc1ccc(S(=O)(=O)N2CCN(S(=O)(=O)c3ccc4c(c3)OCCO4)CC2)cc1	inactive
O=S(=O)(c1c(F)cccc1F)N1CCN(S(=O)(=O)c2c(F)cccc2F)CC1	inactive
O=S(=O)(c1ccc2c(c1)OCCO2)N1CCN(S(=O)(=O)c2ccccn2)CC1	inactive
COc1cc(F)c(S(=O)(=O)N2CCN(S(=O)(=O)c3ccc4c(c3)OCCO4)CC2)c(F)c1	inactive
O=S(=O)(NC1CCN(S(=O)(=O)c2c(F)cccc2F)C1)c1ccc2c(c1)OCCO2 (centres undefined)	inactive
O=S(=O)(c1cccc(F)c1)N1CCN(S(=O)(=O)c2ccc3c(c2)OCCO3)CC1	inactive
O=S(=O)(NC1CCN(S(=O)(=O)c2ccc3c(c2)OCCO3)CC1)c1c(F)cccc1F	inactive
COc1ccc(S(=O)(=O)N2CCN(S(=O)(=O)c3ccc(OC)cc3)CC2)cc1	inactive
O=S(=O)(c1ccc(Cl)cc1)N1CCN(S(=O)(=O)c2ccc3c(c2)OCCO3)CC1	inactive
O=S(=O)(NC1CCN(S(=O)(=O)c2c(F)cccc2F)CC1)c1ccc2c(c1)OCCO2	inactive
O=S(=O)(c1cccc(C(F)(F)F)c1)N1CCN(S(=O)(=O)c2ccc3c(c2)OCCO3)CC1	inactive
O=S(=O)(c1ccc2ccccc2c1)N1CCN(S(=O)(=O)c2c(F)cccc2F)CC1	inactive

SMILES	Activity
O=S(=O)(NCC1CN(S(=O)(=O)c2c(F)cccc2F)C1)c1ccc2c(c1)OCCO2	inactive
COc1cccc(S(=O)(=O)N2CCN(S(=O)(=O)c3ccc4c(c3)OCCO4)CC2)c1	inactive
O=S(=O)(NC1CCN(S(=O)(=O)c2ccc3c(c2)OCCO3)C1)c1c(F)cccc1F (centres undefined)	inactive
O=S(=O)(c1ccc2c(c1)OCCO2)C1CCN(S(=O)(=O)c2c(F)cccc2F)CC1	inactive
O=S(=O)(c1c(F)cccc1F)C1CCN(S(=O)(=O)c2ccc3c(c2)OCCO3)CC1	inactive
CC1(C)CCc2cc(S(=O)(=O)N3CCN(S(=O)(=O)c4c(F)cccc4F)CC3)ccc2O1	inactive
O=C(c1c(F)cccc1F)N1CCN(S(=O)(=O)c2ccc3c(c2)OCCO3)CC1	inactive
O=S(=O)(NCCCCCNS(=O)(=O)c1c(F)cccc1F)c1ccc2c(c1)OCCO2	inactive
O=S(=O)(NCCCNS(=O)(=O)c1c(F)cccc1F)c1ccc2c(c1)OCCO2	inactive
O=S(=O)(N[C@H]1CC[C@@H](NS(=O)(=O)c2c(F)cccc2F)CC1)c1ccc2c(c1)OCCO2	inactive
O=S(=O)(c1ccc(F)cc1)N1CCN(S(=O)(=O)c2ccc3c(c2)OCCO3)CC1	inactive
O=C1CN(S(=O)(=O)c2ccc3c(c2)OCCO3)CCN1S(=O)(=O)c1c(F)cccc1F	inactive
O=S(=O)(NCCCCNS(=O)(=O)c1c(F)cccc1F)c1ccc2c(c1)OCCO2	inactive
O=S(=O)(c1ccccc1)N1CCN(S(=O)(=O)c2ccc3c(c2)OCCO3)CC1	inactive
O=S(=O)(c1ccc2c(c1)OCCO2)N1CCN(S(=O)(=O)c2ccc3c(c2)OCCO3)CC1	inactive
C[C@@H]1CN(S(=O)(=O)c2c(F)cccc2F)CCN1S(=O)(=O)c1ccc2c(c1)OCCO2	inactive
Nc1cccc(S(=O)(=O)N2CCN(S(=O)(=O)c3ccc4c(c3)OCCO4)CC2)c1	inactive
COc1cc(F)c(S(=O)(=O)N2CCN(S(=O)(=O)c3cccc(N)c3)CC2)c(F)c1	inactive
O=C(c1ccc2c(c1)OCCO2)N1CCN(S(=O)(=O)c2c(F)cccc2F)CC1	inactive
O=S(=O)(N[C@H]1CC[C@H](NS(=O)(=O)c2c(F)cccc2F)CC1)c1ccc2c(c1)OCCO2	inactive
O=S(=O)(c1ccc2c(c1)OCCO2)N1CCN(S(=O)(=O)c2c(F)cccc2F)CC1	inactive
O=S(=O)(NCC1CN(S(=O)(=O)c2ccc3c(c2)OCCO3)C1)c1c(F)cccc1F	inactive
N#Cc1ccc(S(=O)(=O)N2CCN(S(=O)(=O)c3ccc4c(c3)OCCO4)CC2)cc1	inactive
C[C@@H]1CN(S(=O)(=O)c2ccc3c(c2)OCCO3)CCN1S(=O)(=O)c1c(F)cccc1F	inactive
Nc1cccc(S(=O)(=O)N2CCN(S(=O)(=O)c3c(F)cccc3F)CC2)c1	inactive
Cn1ccc2cc(S(=O)(=O)N3CCN(S(=O)(=O)c4c(F)cccc4F)CC3)ccc21	inactive
O=S(=O)(c1ccc2c(c1)OCCO2)N1CCN(S(=O)(=O)c2cccc[n+]2[O-])CC1	inactive

From ChEMBL document CHEMBL1156261, “Evaluation of substituted N,N'-diarylsulfonamides as activators of the tumor cell specific M2 isoform of pyruvate kinase” (J Med Chem, 2010)
